Assay results: patent publication US12558386B2, “Methods and compositions to modulate antibiotic resistance and gastrointestinal microbiota” (OHIO STATE INNOVATION FOUNDATION, priority 2018, dated 2026)
Values after ≈ are worked out from the molar mass of the structure shown. Read-outs that look alike come from different tables or passages of the source.

What was measured:
E. coli CA-1 = experiment: MIC assessment (TREK Sensititre); type: cell-based, Escherichia coli
Description: (§1) Bacterial strains. Multiple Amp^r strains from feces of broiler chickens without antibiotic treatment were recovered on Columbia blood Agar base (Becton, […] Dickinson and Company, Franklin Lakes, NJ) supplemented with 5% defibrinated sheep blood (Thermo Scientific™, Grand Island, NY).
(§2) Minimum inhibition concertation (MIC) assessment. A TREK Sensititre diagnostic system (Thermo scientific, Oakwood Village, OH, USA) was used to assess the AR phenotype and MIC of isolated strains. Protocols to use this system can be found on www.trekds.com. Cation-adjusted Mueller Hinton Broth (Becton, Dickinson and Company, MD, USA) was used as basic medium.

E. coli CA-4 = experiment: MIC assessment (TREK Sensititre); type: cell-based, Escherichia coli
Description: as §1, with “NY). The strains were maintained in Columbia broth (Becton Dickinson and Company, Franklin Lakes, NJ), and propagated by aerobic growth at 37° C., and further subjected to strain identification and Minimum Inhibition Concentration (MIC) assessments.” for “NY).”
as §2

E. coli CA-20 = experiment: MIC assessment (TREK Sensititre); type: cell-based, Escherichia coli
Description: as §1, with “NY). The strains were maintained in Columbia broth (Becton Dickinson and Company, Franklin Lakes, NJ), and propagated by aerobic growth at 37° C., and further subjected to strain identification and Minimum Inhibition Concentration (MIC) assessments.” for “NY).”
as §2

[1] = test system: Lactobacillus crispatus CG-12; experiment: MIC assessment (TREK Sensititre); type: cell-based
Description: (§3) Multiple commensal bacterial strains from chicken feces were recovered from Columbia blood Agar base (Becton, […] Dickinson and Company, Franklin Lakes, NJ) supplemented with 5% defibrinated sheep blood (Thermo Scientific™, Grand Island, NY), and maintained in Columbia broth (Becton Dickinson and Company, Franklin Lakes, NJ) and propagated by anaerobic growth at 37° C. The strains were subjected to antibiotic susceptibility assessment followed by strain identification.
as §2

Three Amp^r E. coli = experiment: MIC assessment, summary for the three strains; type: cell-based, Escherichia coli; settings: E. coli CA-1, CA-4 and CA-20 together
Description: as §1, with “NY). The strains were maintained in Columbia broth (Becton Dickinson and Company, Franklin Lakes, NJ), and propagated by aerobic growth at 37° C., and further subjected to strain identification and Minimum Inhibition Concentration (MIC) assessments.” for “NY).”
as §2

CG-12 = experiment: Screening of antibiotic susceptible commensal strains on antibiotic agar plates; type: cell-based, Lactobacillus crispatus; settings: 16 μg/mL tetracycline, 100 μg/mL erythromycin, 32 μg/mL ampicillin, 152 μg/mL sulfamethoxazole with 8 μg/mL trimethoprim
Description: as §3
Screening of antibiotic susceptible commensal strains. Recovered commensal strain isolates (over 1000 colonies) were spotted on Columbia broth (Becton, […] Dickinson and Company, Franklin Lakes, NJ) agar plates containing each of the four antibiotics for rapid assessment of phenotypic resistance profiles. Screened antibiotics included 16 μg/mL tetracycline (Sigma-Aldrich, St. Louis, MO, USA), 100 μg/mL erythromycin (Fisher Scientific, Waltham, MA, USA), 32 μg/mL ampicillin (Sigma-Aldrich), and 152 μg/mL sulfamethoxazole (Sigma-Aldrich) with 8 μg/mL trimethoprim (Sigma-Aldrich).

[2] = test system: poultry fecal/gut microbiota (Proteobacteria, ESBL E. coli); experiment: Chicken study, metagenomics assessment #1 of pooled feces (FIG. 5); type: in vivo, chickens; settings: Tween 80 treatment (Lanes 6, 8)
Description: FIGS. 5A and 5B show the impact of probiotic treatment on bacterial population in pooled feces of chickens. FIG. 5A) Phylum level; FIG. 5B) Class level. The treatments include Lane 1 (no, cocktail, no): no ESBL E. coli inoculation for 4 days, then inoculated with probiotic cocktail but no Tween 80; Lane 2 (no; no, no): no E. coli, no probiotics, no Tween 80; Lane 3: (probiotics, E. coli, no): probiotic cocktail for 4 days, followed by E. coli, but no Tween 80); Lane 4 (Yes, CG12, no): E. coli for 4 days, followed by Lb. crispatus (WZ12) for 4 days but no Tween 80; Lane 5 (yes, cocktail, no): E. coli for 4 days, followed by probiotic cocktail for 4 days, no Tween; Lane 6 ((yes, cocktail, yes): E. coli for 4 days, followed by probiotic cocktail for 4 days, with Tween 80; Lane 7 (Yes, no, no): E. coli for 4 days, saline for 4 days (no probiotics no Tween); Lane 8 (yes, no, yes): ESBL E. coli for 4 days, no probiotics but with Tween 80 for 4 days.
Animal Studies. The probiotics as disclosed herein were applied to chickens raised in a poultry facility, with the aim to examine the effectiveness of the treatment phenotypically and genetically (fecal microbiota) and physiologically (chickens); and to adjust receipt and procedure of feeding if necessary.
Treatments effective in modulating gut microbiota. […]

[3] = Escherichia coli, CA1, E. coli CA-1, read-out: MIC
[4] = Escherichia coli, CA4, E. coli CA-4, read-out: MIC
[5] = Escherichia coli, CA20, E. coli CA-20, read-out: MIC
[6] = Lactobacillus crispatus, CG12, L. crispatus CG-12, read-out: MIC

Compound `[H]/N=C(/N)N[C@H]1[C@H](O)[C@@H](O)[C@H](O[C@@H]2O[C@@H](C)[C@](O)(C=O)[C@H]2O[C@@H]2O[C@@H](CO)[C@H](O)[C@@H](O)[C@@H]2NC)[C@@H](N/C(N)=N\[H])[C@@H]1O` [STR, streptomycin] has an MIC (E. coli CA-1; [3]) of under 1000 µg/mL, an MIC (E. coli CA-4; [4]) of under 1000 µg/mL and an MIC (E. coli CA-20; [5]) of under 1000 µg/mL. For the same compound, the MIC [1, 6] was under 1000 µg/mL.

For gentamicin, the MIC (E. coli CA-1; E. coli CA-1) was 4 µg/mL, the MIC (E. coli CA-4; E. coli CA-4) was 4 µg/mL and the MIC (E. coli CA-20; E. coli CA-20) was 8 µg/mL. For the same compound, the MIC ([1]; L. crispatus CG-12) was 16 µg/mL.

For penicillin, the MIC (E. coli CA-1; E. coli CA-1) was over 8 µg/mL, the “resistance phenotype from MIC, in words” value (Three Amp^r E. coli) was “high resistance” and the MIC (E. coli CA-4; E. coli CA-4) was over 8 µg/mL. The MIC (E. coli CA-20; E. coli CA-20) was over 8 µg/mL and the MIC ([1]; L. crispatus CG-12) was 0.5 µg/mL.

`CCCCCCCCCC(=O)N[C@@H](Cc1c[nH]c2ccccc12)C(=O)N[C@H](CC(N)=O)C(=O)N[C@@H](CC(=O)O)C(=O)N[C@@H]1C(=O)NCC(=O)N[C@@H](CCCN)C(=O)N[C@@H](CC(=O)O)C(=O)N[C@H](C)C(=O)N[C@@H](CC(=O)O)C(=O)NCC(=O)N[C@H](CO)C(=O)N[C@@H]([C@H](C)CC(=O)O)C(=O)N[C@@H](CC(=O)c2ccccc2N)C(=O)O[C@@H]1C` [DAP, daptomycin] was tested, and the MIC (E. coli CA-1; [3]) was over 8 µg/mL, the “resistance phenotype from MIC, in words” value (Three Amp^r E. coli) was “resistant” and the MIC (E. coli CA-4; [4]) was over 8 µg/mL. The MIC (E. coli CA-20; [5]) was over 8 µg/mL, the “resistance phenotype from MIC, in words” value ([1]; L. crispatus CG-12) was “resistant” and the MIC [1, 6] was 4 µg/mL (≈ 2.47 µM).

With `O=C(O)c1cn(C2CC2)c2cc(N3CCNCC3)c(F)cc2c1=O` [CIP, ciprofloxacin] the “resistance phenotype from MIC, in words” value ([1]; L. crispatus CG-12) was “resistant” and the MIC [1, 6] was over 2 µg/mL.

With `CC(=O)NC[C@H]1CN(c2ccc(N3CCOCC3)c(F)c2)C(=O)O1` [LZD, linezolid] the MIC (E. coli CA-1; [3]) was over 8 µg/mL, the “resistance phenotype from MIC, in words” value (Three Amp^r E. coli) was “resistant” and the MIC (E. coli CA-4; [4]) was over 8 µg/mL. For the same compound, the MIC (E. coli CA-20; [5]) was over 8 µg/mL and the MIC [1, 6] was 2 µg/mL (≈ 5.93 µM).

`CC[C@H]1OC(=O)[C@H](C)[C@@H](O[C@H]2C[C@@](C)(OC)[C@@H](O)[C@H](C)O2)[C@H](C)[C@@H](O[C@@H]2O[C@H](C)C[C@H](N(C)C)[C@H]2O)[C@](C)(O)C[C@@H](C)C(=O)[C@H](C)[C@@H](O)[C@]1(C)O` [ERY, erythromycin] was tested, and the “phenotypic susceptibility on antibiotic agar plates” value (CG-12) was “susceptible”, the MIC (E. coli CA-1; [3]) was over 4 µg/mL and the “resistance phenotype from MIC, in words” value (Three Amp^r E. coli) was “resistant”. It also gave an MIC (E. coli CA-4; [4]) of over 4 µg/mL, an MIC (E. coli CA-20; [5]) of over 4 µg/mL and an MIC [1, 6] of under 0.25 µg/mL.

`C[C@H]1COc2c(N3CCN(C)CC3)c(F)cc3c(=O)c(C(=O)O)cn1c23` [LEVO, levofloxacin] was tested, and the MIC (E. coli CA-1; [3]) was under 0.25 µg/mL, the MIC (E. coli CA-4; [4]) was under 0.25 µg/mL and the MIC (E. coli CA-20; [5]) was under 0.25 µg/mL. It also gave an MIC [1, 6] of over 8 µg/mL.

For `CO/N=C(\C(=O)N[C@@H]1C(=O)N2C(C(=O)O)=C(CSc3nc(=O)c(=O)[nH]n3C)CS[C@H]12)c1csc(N)n1` [AXO, ceftriaxone], the MIC (E. coli CA-1; [3]) was under 8 µg/mL, the MIC (E. coli CA-4; [4]) was under 8 µg/mL and the MIC (E. coli CA-20; [5]) was 16 µg/mL (≈ 28.9 µM). For the same compound, the “resistance phenotype from MIC, in words” value (E. coli CA-20; only E. coli CA-20) was “some resistant” and the MIC [1, 6] was under 8 µg/mL.

`CN(C)[C@@H]1C(O)=C(C(N)=O)C(=O)[C@@]2(O)C(O)=C3C(=O)c4c(O)cccc4[C@@](C)(O)[C@H]3C[C@@H]12` [TET, tetracycline] showed an MIC (E. coli CA-1; [3]) of under 2 µg/mL, an MIC (E. coli CA-4; [4]) of under 2 µg/mL and an MIC (E. coli CA-20; [5]) of under 2 µg/mL. For the same compound, the MIC [1, 6] was under 2 µg/mL.

For `CN[C@H](CC(C)C)C(=O)N[C@H]1C(=O)N[C@@H](CC(N)=O)C(=O)N[C@H]2C(=O)N[C@H]3C(=O)N[C@H](C(=O)N[C@H](C(=O)O)c4cc(O)cc(O)c4-c4cc3ccc4O)[C@H](O)c3ccc(c(Cl)c3)Oc3cc2cc(c3O[C@@H]2O[C@H](CO)[C@@H](O)[C@H](O)[C@H]2O[C@H]2C[C@](C)(N)[C@H](O)[C@H](C)O2)Oc2ccc(cc2Cl)[C@H]1O` [VAN, vancomycin], the MIC (E. coli CA-1; Escherichia coli, CA1) was over 128 µg/mL, the “resistance phenotype from MIC, in words” value (Three Amp^r E. coli) was “resistant” and the MIC (E. coli CA-4; Escherichia coli, CA4) was over 128 µg/mL. It also gave an MIC (E. coli CA-20; Escherichia coli, CA20) of over 128 µg/mL and an MIC ([1]; Lactobacillus crispatus, CG12) of under 1 µg/mL.

`COc1c(N2CCNC(C)C2)c(F)cc2c(=O)c(C(=O)O)cn(C3CC3)c12` (stereo not drawn) [GAT, gatifloxacin] showed an MIC (E. coli CA-1; [3]) of under 1 µg/mL, an MIC (E. coli CA-4; [4]) of under 1 µg/mL and an MIC (E. coli CA-20; [5]) of under 1 µg/mL. For the same compound, the “resistance phenotype from MIC, in words” value ([1]; L. crispatus CG-12) was “resistant” and the MIC [1, 6] was 4 µg/mL (≈ 10.7 µM).

For quinupristin/dalfopristin [SYN], the MIC (E. coli CA-1; E. coli CA-1) was over 4 µg/mL, the MIC (E. coli CA-4; E. coli CA-4) was over 4 µg/mL and the MIC (E. coli CA-20; E. coli CA-20) was over 4 µg/mL. The MIC ([1]; L. crispatus CG-12) was 0.25 µg/mL.

In the case of `CCCCCCCC/C=C\CCCCCCCC(=O)OCCOCC(OCCO)C1OCC(OCCO)C1OCCO` (stereo not drawn) [Tween 80], the “effect on fecal microbiota” value [2] is reported as “assisted the colonization of Proteobacteria but not the Firmicutes”.

With `CO[C@H]1/C=C/O[C@@]2(C)Oc3c(C)c(O)c4c(O)c(c(/C=N/N5CCN(C)CC5)c(O)c4c3C2=O)NC(=O)/C(C)=C\C=C\[C@H](C)[C@H](O)[C@@H](C)[C@@H](O)[C@@H](C)[C@H](OC(C)=O)[C@@H]1C` [RIF, rifampin] the MIC (E. coli CA-1; [3]) was 4 µg/mL (≈ 4.86 µM), the MIC (E. coli CA-4; [4]) was over 4 µg/mL and the MIC (E. coli CA-20; [5]) was 4 µg/mL (≈ 4.86 µM). The MIC [1, 6] was 1 µg/mL (≈ 1.22 µM).

oxacillin + 2% NaC [OXA+] was tested, and the MIC (E. coli CA-1; E. coli CA-1) was over 8 µg/mL, the “resistance phenotype from MIC, in words” value (Three Amp^r E. coli) was “high resistance” and the MIC (E. coli CA-4; E. coli CA-4) was over 8 µg/mL. The MIC (E. coli CA-20; E. coli CA-20) was 8 µg/mL and the MIC ([1]; L. crispatus CG-12) was under 0.25 µg/mL.

With sulfamethoxazole/trimethoprim [SXT] the “phenotypic susceptibility on antibiotic agar plates” value (CG-12) was “susceptible” and the MIC ([1]; L. crispatus CG-12) was 2/38.

Work on `CCC[C@@H]1C[C@@H](C(=O)N[C@@H]([C@H]2O[C@H](SC)[C@H](O)[C@@H](O)[C@H]2O)[C@H](C)Cl)N(C)C1` [CLI, clindamycin] yielded an MIC (E. coli CA-1; [3]) of over 2 µg/mL, an MIC (E. coli CA-4; [4]) of over 2 µg/mL and an MIC (E. coli CA-20; [5]) of over 2 µg/mL. The MIC [1, 6] was under 0.12 µg/mL.
